“And” between values parts separate entries of the source, which are not always exact repeats. Identical values can stand only once.
Key:
[1] = Far-UV CD spectra, secondary structure content (Example 1); format: physicochemical; conditions: free in solution
Source text: Both proteins show a spectrum dominated by relatively high α-helical content as indicated by the two minima at λ=222 nm and 208 nm. […] By contrast, the spectrum of the N-terminal peptide is dominated by the contribution of random coil-structure and spectrally equivalent to a peptide containing a scrambled sequence but identical amino acid composition.

[2] = target: T1, A1-1261 (Homo sapiens, UniProt P04275); experiment: Binding of free N-terminal peptide to A1-1261 from thermal unfolding enthalpy (tryptophan fluorescence)
T1 construct: A1-1261 (amino acids D1261-P1471); made in house
Source text: This would imply a specific interaction between this N-terminal sequence and the A1 domain when covalently linked in sequence. The only way to examine such a stabilization using spectroscopy was the measurement of thermal unfolding via fluorescence. Since the N-terminal peptide also contains a single tyrosine residue, the excitation wavelength was changed to λ=295 nm in order to measure tryptophan fluorescence and the effect of the peptide on the unfolding of the A1-domain was observed indirectly. Thermal scans of 2 μM A1-1261 were performed as a function of increasing amounts of the N-terminal peptide at 2° Celsius/min. […] Thermal scans were also done in the presence of a peptide with the same amino acid composition, but a scrambled sequence. The inset of FIG. 7A compares the raw fluorescence thermal scans in the presence of 300 μM scrambled and N-terminal peptides. Unfolding in the presence of excess scrambled peptide was equivalent to unfolding in the absence of either peptide. […] Fitting the enthalpy data to a simple single site binding model yields a dissociation constant of ≈46±6 μM.
Prior to all spectroscopic thermal scans, protein samples were equilibrated at 10° Celsius for 15 min to obtain a stable baseline. CD thermal scans between 10 and 95° Celsius were recorded at λ=222 nm using a protein concentration of 1 or 2 μM in a 1 cm quartz cell under moderate stirring. Scan rates were 0.5, 1.0, 1.5 and 2.0° Celsius/min. Integration time for each data point was 20 s with a 1 nm bandwidth. Fluorescence thermal scans between 10 and 95 Celsius were recorded at an emission λ=359 nm after excitation λ=280 nm or λ=295 nm using 2 μM protein in a 1 cm quartz cell with moderate stirring. Scan rates were 0.4 or 0.6, 0.9, 1.6 and 2.0° Celsius/min. At each temperature, relative fluorescence intensity was collected for 4 s and averaged. Thermal scans in the presence of N-terminal peptide at 2.0° Celsius/min were preceded by 1 h incubations at 20° Celsius with 0.02-300 μM peptide.
For the thermal unfolding studies in the presence of peptide, the inventor treated the change in enthalpy of unfolding, ΔHT*^‡ as an observable directly proportional to the degree of binding, X, because the T* was not dependent on peptide concentration.
For the simple single site binding model, A1+P<->A1P, where P is the peptide, the degree of binding is given by
where K is the binding affinity and the free peptide, [P], concentration is given in terms of the total protein, A1T, and peptide, PT, concentrations.

[3] = target: T2, platelet GP1bα (Homo sapiens, UniProt P04275); experiment: Platelet pause times and translocation velocities on immobilized A1 under shear flow, parallel-plate flow chamber (Example 1); format: cell-based
T2 construct: perfused at low shear to enable platelets to attach to the surface immobilized domains; endogenous in cells; host or cells: platelets in citrated whole blood of healthy donors
Source text: (§1) To understand the effect of the N-terminal peptide on the function of the A1-domain of vWF, the protein was expressed with (A1-1238) and without the N-terminal peptide (A1-1261). The inventor used a flow chamber to measure the dynamics of platelet interactions with A1-1238 and A1-1261. Each domain variant was immobilized on glass slides with a modified Cu^2+ chelating chemistry that enabled surface capture via the N-terminally fused histidine tag. This method ensured reproducible capture of the proteins eliminating possible structural issues associated with nonspecific immobilization on plastic or glass. The slides were completely inert to platelets. Next, 1 mL of citrated whole blood followed by Tris buffered saline was perfused at low shear to enable platelets to attach to the surface immobilized domains. After red cells were perfused away with buffer, the translocation of the remaining attached platelets over the surfaces was recorded at each shear rate and the velocities and pause times calculated from the coordinate data of each platelet on the surface as described in the methods. […] In addition, the translocation velocities were increased for A1-1238 relative to A1-1261. To determine if this N-terminal sequence could inhibit the catch bond when free in solution, the inventor incubated surface immobilized A1-1261 with excess free peptide and added the free peptide to 1 mL of whole blood and to our perfusion buffer and performed the assay.
(§2) Determination of platelet pause times. Determination of platelet pause times A Glycotech† rectangular parallel-plate flow chamber was mounted to slides with a chelated Cu 21 surface obtained from Microsurfaces Inc. # to which the A1-1261 and A1-1238 domains in TBS were immobilized by the 63His-Tag. Citrated whole blood (1 mL) obtained from informed consent of healthy donors with approval from the Baylor College of Medicine institutional review board followed by buffer was perfused through the chamber at 300s21 for A1-1261 and 700s21 for A1-1238 shear rate to attach platelets to the surface immobilized proteins using a syringe driven variable flow rate pump. The shear was increased incrementally and 1 min movies were recorded at 25 frames/s in phase contrast with 232 pixel binning on a Zeiss Axiocam MRm camera attached to a Zeiss Axio Observer D1 inverted microscope. Tracking analysis was performed using Mediacybernetics ImagePro Premier§. The resulting X-Y coordinate data for each platelet track was differentiated into instantaneous velocities using a Savitzky-Golay algorithm (Savitzky:1964) with a five data point window size and a second-order polynomial implemented into a Mathamatica notebook. These platelet tracks were retained for statistical analysis if the platelet was present for at least 1 s and travelled a total distance greater than 1 lm. Distance travelled in pixels was converted to lm given the camera pixel size=6.45 μm^2, pixel binning, and microscope magnification=400×. Pause times were determined by the amount of time (seconds) a platelets velocity was =0±0.13 μm/s, within the noise. Pause times for all platelet tracks are reported as the mean of the medians. Examples of this analysis for individual platelets and for multiple platelets are provided in the Supporting Information.
(§3) Frame by frame platelet trajectory analysis. Tracking coordinates of individual platelets in units of pixels were exported from ImagePro Premier as a text file and imported into a Mathematica notebook that calculates a Savitzky-Golay first derivative of the total distance traveled over time (Savitzky:1964). The distance was calculated from the X and Y coordinates with the following equation.
(§4) Pause times were determined from the length of time the platelet velocity remained within 0±4 pixel/sec=0.129 μm/sec as illustrated in FIG. 8B. Median pause times were calculated from velocity time profiles for all platelet tracks, stored in a list and translated to histograms for multiple platelets. […]

[4] = test system: T3, platelet GP1bα (Homo sapiens); experiment: as above; format: cell-based; conditions: 300 μM peptide incubated with immobilized A1-1261; 66 μM in whole blood and buffer
T3 construct: perfused at low shear to enable platelets to attach to the surface immobilized domains; endogenous in cells; host or cells: platelets in citrated whole blood of healthy donors
T3 sequence (P04275 1261-1471): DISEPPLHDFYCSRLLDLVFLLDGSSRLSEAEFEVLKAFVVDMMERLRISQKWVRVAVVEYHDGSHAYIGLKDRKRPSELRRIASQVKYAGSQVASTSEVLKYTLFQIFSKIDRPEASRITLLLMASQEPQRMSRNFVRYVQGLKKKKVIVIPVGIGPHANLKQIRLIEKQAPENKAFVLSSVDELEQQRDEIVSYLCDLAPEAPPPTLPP
Source text: as §1, §2, §3, §4

β and random coil content of the sequence [1]: > 80% | Effect of peptide on unfolding enthalpy of A1-1238 [2]: did not change the unfolding enthalpy | Kd ([2]; single site binding model fit to unfolding enthalpy, 2 μM A1-1261, 2° Celsius/min, read-out: Dissociation constant (KD) of N-terminal peptide binding to A1-1261): 46 µM and ~46 µM | Effect of free peptide on platelet translocation velocities on immobilized A1-1261 ([3]; 300 μM peptide incubated with immobilized A1-1261, 66 μM in whole blood and buffer): increase in translocation velocities | Effect of free peptide on platelet pause times on immobilized A1-1261 [4]: significant decrease in pause times
Substance: H-QEPGGLVVPPTDAPVSPTTLYVE-OH [N-terminal peptide]
Effect of free peptide on platelet pause times or translocation velocities on immobilized A1-1238 ([3]; free peptide added): did not significantly change the pause times or translocation velocities
